In the first experiment the target is T1, Mcl-1/Bim interaction, recombinant human Mcl-1 (171-327) (Homo sapiens, UniProt Q07820).
T1 construct: made in house
T1 sequence (Q07820 171-327): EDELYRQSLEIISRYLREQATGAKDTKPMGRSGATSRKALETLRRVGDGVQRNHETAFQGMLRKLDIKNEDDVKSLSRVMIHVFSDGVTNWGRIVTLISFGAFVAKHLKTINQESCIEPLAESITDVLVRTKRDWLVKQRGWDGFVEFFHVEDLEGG
The experiment can be described thus: Cell free Mcl-1: Bim Affinity Assay (Mcl-1 HTRF). As to conditions: TR-FRET, 0.1 nM Mcl-1 (171-327), 0.05 nM biotin-Bim (51-76). It counts as binding. The essentials: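 Compounds were mixed with the protein and a biotinylated Bim peptide spanning human residues 51-76. Plates were left overnight, then TR-FRET signal was measured. A four-parameter sigmoidal model applied to duplicate competition data gave IC50.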
Background: In TR-FRET formats the signal depends on donor and acceptor labels being close together.
Consider `O=C1NS(=O)(=O)C2CCCC(CCC(O)C3CCC3CN3CC4(CCCc5cc(Cl)ccc54)COc4ccc1cc43)C2` (single isomer, unassigned) [Example 106], for which the IC50 was 16.9 nM.

Turning to `C[C@]12CC[C@H]1CN1C[C@@]3(CCCc4cc(Cl)ccc43)COc3ccc(cc31)C(=O)NS(=O)(=O)CCCCC[C@@H]2O` (single isomer, unassigned) [Example 121], the concentration for half-maximal inhibition (IC50) was found to be 12.2 nM.

For `CC[C@@H]1CCCC[C@H](OCC(=O)O)[C@@H]2CC[C@H]2CN2C[C@@]3(CCCc4cc(Cl)ccc43)COc3ccc(cc32)C(=O)NS1(=O)=O` [Example 994, (((1S,3′R,6′R,7′S,12′R)-6-chloro-12′-ethyl-13′,13′-dioxido-15′-oxo-3,4-dihydro-2H-spiro[naphthalene-1,22′-[20]oxa[13]thia[1,14]diazatetracyclo[14.7.2.0^3,6.0^19,24]pentacosa [16,18,24]trien]-7′-yl)oxy)acetic Acid], the concentration for half-maximal inhibition (IC50) came out at 0.221 nM.

Consider `CC[C@@H]1CC/C=C/[C@H](OCCN2CCOCC2)[C@@H]2CC[C@H]2CN2C[C@@]3(CCCc4cc(Cl)ccc43)COc3ccc(cc32)C(=O)NS1(=O)=O` [Example 984, (1S,3′R,6′R,7′S,8′E,12′R)-6-chloro-12′-ethyl-7′-(2-(4-morpholinyl)ethoxy)-3,4-dihydro-2H,15′H-spiro[naphthalene-1,22′-[20]oxa[13]thia[1,14]diazatetracyclo[14.7.2.0^3,6.0^19,24]pentacosa [8,16,18,24]tetraen]-15′-one 13′,13′-dioxide], for which the IC50 was found to be 1.09 nM.

With `CCC1CCC=CC(OC(C)C(=O)N(C)C)C2CCC2CN2CC3(CCCc4cc(Cl)ccc43)COc3ccc(cc32)C(=O)NS1(=O)=O` (mixture of isomers) [Example 985], the IC50 came to 1.46 nM.

Consider `CC[C@@H]1CC/C=C/[C@H](OCC(C)(C)O)[C@@H]2CC[C@H]2CN2C[C@@]3(CCCc4cc(Cl)ccc43)COc3ccc(cc32)C(=O)NS1(=O)=O` [Example 972, (1S,3′R,6′R,7′S,8′E,12′R)-6-chloro-12′-ethyl-7′-(2-hydroxy-2-methylpropoxy)-3,4-dihydro-2H,15′H-spiro[naphthalene-1,22′-[20]oxa[13]thia[1,14]diazatetracyclo[14.7.2.0^3,6.0^19,24]pentacosa [8,16,18,24]tetraen]-15′-one 13′,13′-dioxide], for which the IC50 was 1.59 nM.

With `C[C@]12CC[C@H]1CN1C[C@@]3(CCCc4cc(Cl)ccc43)COc3ccc(cc31)C(=O)NS(=O)(=O)CCCCC[C@@H]2O` (single isomer, unassigned) [Example 122], the half-inhibitory concentration (IC50) was 7.17 nM.

Consider `CC[C@@H]1CC/C=C/[C@H](OCC(=O)OC(C)(C)C)[C@@H]2CC[C@H]2CN2C[C@@]3(CCCc4cc(Cl)ccc43)COc3ccc(cc32)C(=O)NS1(=O)=O` [Example 971, tert-butyl (((1S,3′R,6′R,7′S,8′E,12′R)-6-chloro-12′-ethyl-13′,13′-dioxido-15′-oxo-3,4-dihydro-2H-spiro[naphthalene-1,22′-[20]oxa[13]thia[1,14]diazatetracyclo[14.7.2.0^3,6.0^19,24]pentacosa [8,16,18,24]tetraen]-7′-yl)oxy)acetate], for which the IC50 came out at 8.44 nM.

Take `CC[C@@H]1CC/C=C/[C@@H](NC(C)=O)[C@@H]2CC[C@H]2CN2C[C@@]3(CCCc4cc(Cl)ccc43)COc3ccc(cc32)C(=O)NS1(=O)=O` (single isomer, unassigned) [Example 1078]: the IC50 came to 0.557 nM.

The experiment is the same for the next values; noted with them: cell free Mcl-1:Bim TR-FRET, recombinant human Mcl-1 (171-327).
As to `O=C1NS(=O)(=O)C/C=C/C[C@@H](O)C[C@@H]2CC[C@H]2CN2C[C@@]3(CCCc4cc(Cl)ccc43)COc3ccc1cc32` (single isomer, unassigned) [Example 912], the half-inhibitory concentration (IC50) came to 7.78 nM.

Turning to `O=C1NS(=O)(=O)C[C@H](CO)CCC[C@H](O)[C@@H]2CC[C@H]2CN2C[C@@]3(CCCc4cc(Cl)ccc43)COc3ccc1cc32` (single isomer, unassigned) [Example 708], the IC50 amounted to 1.12 nM.

Turning to “(1S,3′R,6′S,14′S,15′R)-6-chloro-3,4-dihydro-2H,9′H,17′H-spiro[naphthalene-1,24′-[22]oxa[15]thia[1,10,16]triazapentacyclo[16.7.2.1^10,14.0^3,6.0^21,26]octacosa[18,20,26]triene]-9′,17′-dione 15′-oxide or (1S,3′R,6′S,14′S,15′S)-6-chloro-3,4-dihydro-2H,9′H,17′H-spiro[naphthalene-1,24′-[22]oxa[15]thia[1,10,16]triazapentacyclo[16.7.2.1^10,14.0^3,6.0^21,26]octacosa[18,20,26]triene]-9′,17′-dione 15′-oxide [Example 948]”, the IC50 came out at 10.3 nM.

In the case of `O=C1NS(=O)(=O)CCCCC[C@@H](NO)[C@@H]2CC[C@H]2CN2C[C@@]3(CCCc4cc(Cl)ccc43)COc3ccc1cc32` (single isomer, unassigned) [Example 933, (1S,3′R,6′R,7′R)-6-chloro-7′-(hydroxyamino)-3,4-dihydro-2H,15′H-spiro[naphthalene-1,22′-[20]oxa[13]thia[1,14]diazatetracyclo[14.7.2.0^3,6.0^19,24]pentacosa [16,18,24]trien]-15′-one 13′,13′-dioxide or (1S,3′R,6′R,7′S)-6-chloro-7′-(hydroxyamino)-3,4-dihydro-2H,15′H-spiro[naphthalene-1,22′-[20]oxa[13]thia[1,14]diazatetracyclo[14.7.2.0^3,6.0^19,24]pentacosa [16,18,24]trien]-15′-one 13′,13′-dioxide], the IC50 stood at 15 nM.

On to `O=C1NS(=O)(=O)C[C@H](c2ccccc2)C/C=C/[C@H](O)[C@@H]2CC[C@H]2CN2C[C@@]3(CCCc4cc(Cl)ccc43)COc3ccc1cc32` (single isomer, unassigned) [Example 704], for which the concentration for half-maximal inhibition (IC50) is 40.5 nM.

Regarding `O=C1NS(=O)(=O)CC/C=C/CC(=O)[C@@H]2CC[C@H]2CN2C[C@@]3(CCCc4cc(Cl)ccc43)COc3ccc1cc32` [Example 905, (1S,3′R,6′R,9′E)-6-chloro-3,4-dihydro-2H,7′H,15′H-spiro[naphthalene-1,22′-[20]oxa[13]thia[1,14]diazatetracyclo[14.7.2.0^3,6.0^19,24]pentacosa [9,16,18,24]tetraene]-7′,15′-dione 13′,13′-dioxide], the IC50 amounted to 14.1 nM.

As for `CC[C@@H]1CCCCC[C@H](O)[C@@H]2CC[C@H]2CN2C[C@@]3(CCCc4cc(Cl)ccc43)COc3ccc(cc32)C(=O)NS1(=O)=O` [Example 554, (1S,3′R,6′R,7′S,13′R)-6-chloro-13′-ethyl-7′-hydroxy-3,4-dihydro-2H,16′H-spiro[naphthalene-1,23′-[21]oxa[14]thia[1,15]diazatetracyclo[15.7.2.0^3,6.0^20,25]hexacosa[17,19,25]trien]-16′-one 14′,14′-dioxide], the IC50 was found to be 1.83 nM.

As for `C[C@H]1C/C=C/[C@H](O)[C@@H]2CC[C@H]2CN2C[C@@]3(CCCc4cc(Cl)ccc43)COc3ccc(cc32)C(=O)NS1(=O)=O` (single isomer, unassigned) [Example 759], the half-maximal inhibitory concentration (IC50) came out at 3.98 nM.

As to `CC#CC1=CC(O)CCC(C)S(=O)(=O)NC(=O)c2ccc3c(c2)N(CC2CCC12)CC1(CCCc2cc(Cl)ccc21)CO3` (single isomer, unassigned) [Example 605], the IC50 amounted to 0.943 nM.

As to `C[C@@H]1CC/C=C/[C@H](NC(=O)N(C)C)[C@@H]2CC[C@H]2CN2C[C@@]3(CCCc4cc(Cl)ccc43)COc3ccc(cc32)C(=O)NS1(=O)=O` [Example 601, 3-((1S,3′R,6′R,7′S,8′E,12′R)-6-chloro-12′-methyl-13′,13′-dioxido-15′-oxo-3,4-dihydro-2H-spiro[naphthalene-1,22′-[20]oxa[13]thia[1,14]diazatetracyclo[14.7.2.0^3,6.0^19,24]pentacosa [8,16,18,24]tetraen]-7′-yl)-1,1-dimethylurea-trifluoroacetate], the concentration for half-maximal inhibition (IC50) was 1.33 nM.

Consider `O=C1NS(=O)(=O)CC/C=C\C[C@H](O)[C@@H]2CC[C@H]2CN2C[C@@]3(CCCc4ccccc43)COc3ccc1cc32` [Example 807, (1S,3′R,6′R,7′S,9′Z)-7′-hydroxy-3,4-dihydro-2H,15′H-spiro[naphthalene-1,22′-[20]oxa[13]thia [1,14]diazatetracyclo[14.7.2.0^3,6.0^19,24]pentacosa[9,16,18,24]tetraen]-15′-one 13′,13′-dioxide], for which the 50% inhibitory concentration (IC50) turned out to be 42.3 nM.

With `O=C1NS(=O)(=O)CCCCC[C@@H](NCC(F)(F)F)[C@@H]2CC[C@H]2CN2C[C@@]3(CCCc4cc(Cl)ccc43)COc3ccc1cc32` (single isomer, unassigned) [Example 930], the IC50 was determined as 19.6 nM.

On to `CC1C(O)CC=CCC2CCC2CN2CC3(CCCc4cc(Cl)ccc43)COc3ccc(cc32)C(=O)NS1(=O)=O` (single isomer, unassigned) [Example 507], for which the 50% inhibitory concentration (IC50) is 18.3 nM.

Consider `CC[C@@H]1/C=C/C[C@H](O)[C@@H]2CC[C@H]2CN2C[C@@]3(CCCc4cc(Cl)ccc43)COc3ccc(cc32)C(=O)NS1(=O)=O` (single isomer, unassigned) [Example 766], for which the IC50 came to 6.5 nM.

With `O=C1NS(=O)(=O)/C=C/COC[C@@H](O)[C@@H]2CC[C@H]2CN2C[C@@]3(CCCc4cc(Cl)ccc43)COc3ccc1cc32` (single isomer, unassigned) [Example 917, (3R,6R,7S,11E,22S)-6′-chloro-7-hydroxy-3′,4′-dihydro-2′H,15H-spiro[9,20-dioxa-13-thia-1,14-diazatetracyclo[14.7.2.0^3,6.0^19,24]pentacosa-11,16,18,24-tetraene-22,1′-naphthalen]-15-one 13,13-dioxide or (3R,6R,7R,11E, 22S)-6′-chloro-7-hydroxy-3′,4′-dihydro-2′H,15H-spiro[9,20-dioxa-13-thia-1,14-diazatetracyclo[14.7.2.0^3,6.0^19,24]pentacosa-11,16,18,24-tetraene-22,1′-naphthalen]-15-one 13,13-dioxide], the IC50 worked out at 4.11 nM.

For the molecule `O=C1NS(=O)(=O)CCCCC[C@@H]2CC[C@H]2CN2C[C@@]3(CCCc4cc(Cl)ccc43)COc3ccc1cc32` [Example 818, (1S,3′R,6′R)-6-chloro-3,4-dihydro-2H,14′H-spiro[naphthalene-1,21′-[19]oxa[12]thia[1,13]diazatetracyclo[13.7.2.0^3,6.0^18,23]tetracosa[15,17,23]trien]-14′-one 12′,12′-dioxide], the IC50 was determined as 13.6 nM.

Usually IC50 stands for the concentration at which inhibition is half-maximal.

The values are drawn from US12091425B2 (AMGEN INC., priority 2016, dated 2024).
